Reference: ChEMBL document CHEMBL2069279, “Target fishing and docking studies of the novel derivatives of aryl-aminopyridines with potential anticancer activity” (Bioorg Med Chem, 2012)

Columns and labels:
[1] = tested on: HeLa; assay: Cytotoxicity against human HeLa cells after 72 hrs by MTT assay; format: functional, cell-based
[2] = Cytotoxicity against human Fem-X cells after 72 hrs by MTT assay; format: functional, cell-based
[3] = tested on: PBMC; assay: Cytotoxicity against human PBMC cells in absence of phytohemagglutinin after 72 hrs by MTT assay; format: cell-based
[4] = tested on: PBMC; assay: Cytotoxicity against human PBMC cells in presence of phytohemagglutinin after 72 hrs by MTT assay; format: cell-based
[5] = tested on: K562; assay: Cytotoxicity against human K562 cells after 72 hrs by MTT assay; format: functional, cell-based; settings: K562, 72 h
[6] = Homo sapiens, HeLa, 72 h, read-out: IC50

Compound: CCc1ccc(Nc2cc(-c3cccc(C(F)(F)F)c3)ccn2)cc1
- IC50 [1, 6]: > 200 µM
- IC50 [2]: > 200 µM

Compound: Cc1ccc(-c2ccnc(Nc3ccc(F)cc3)c2)cc1
- IC50 [3]: 127 µM
- IC50 [4]: 146 µM
- IC50 [1, 6]: 146 µM
- IC50 [2]: 79 µM
- IC50 [5]: 54 µM

Compound: COc1ccc(Nc2nc3ccccc3cc2-c2ccc(C)cc2)cc1
- IC50 [3]: 137 µM
- IC50 [4]: 118 µM
- IC50 [1, 6]: 102 µM
- IC50 [2]: 65 µM
- IC50 [5]: 75 µM

Compound: COc1cccc(Nc2nc3ccccc3cc2-c2ccccc2)c1
- IC50 [3]: 119 µM
- IC50 [4]: 81 µM
- IC50 ([1]; hela): ND(toxic)
- IC50 [2]: 129 µM
- IC50 [5]: 76 µM

Compound: COc1ccc(Nc2ccc3ccccc3n2)cc1
- IC50 [3]: 91 µM
- IC50 [4]: 70 µM
- IC50 [1, 6]: 51 µM
- IC50 [2]: 43 µM
- IC50 [5]: 30 µM

Compound: COc1cccc(Nc2cc(-c3cccc(C(F)(F)F)c3)ccn2)c1
- IC50 [1, 6]: > 200 µM
- IC50 [2]: > 200 µM

Compound: COc1ccc(Nc2cc(-c3cccc(C(F)(F)F)c3)ccn2)cc1
- IC50 [3]: 132 µM
- IC50 [4]: 105 µM
- IC50 [1, 6]: 140 µM
- IC50 [2]: 68 µM
- IC50 [5]: 78 µM

Compound: CCc1ccc(Nc2nc3ccccc3cc2-c2ccccc2)cc1
- IC50 [3]: 73 µM
- IC50 [4]: 66 µM
- IC50 [1, 6]: 140 µM
- IC50 [2]: 92 µM
- IC50 [5]: 99 µM

Compound: Fc1ccc(Nc2ccc3ccccc3n2)cc1
- IC50 [3]: 90 µM
- IC50 [4]: 65 µM
- IC50 [1, 6]: 33 µM
- IC50 [2]: 35 µM
- IC50 [5]: 36 µM

Compound: COc1ccc(Nc2cccnc2)cc1
- IC50 [3]: 96 µM
- IC50 [4]: 183 µM
- IC50 [1, 6]: 145 µM
- IC50 [2]: 118 µM
- IC50 [5]: 68 µM

Compound: COc1ccc(Nc2c(-c3ccccc3)cnc3ccccc23)cc1
- IC50 [3]: 72 µM
- IC50 [4]: 62 µM
- IC50 [1, 6]: 64 µM
- IC50 [2]: 35 µM
- IC50 [5]: 25 µM

Compound: COc1ccc(Nc2ccccn2)cc1
- IC50 [3]: 46 µM
- IC50 [4]: 42 µM
- IC50 [1, 6]: 117 µM
- IC50 [2]: 123 µM
- IC50 [5]: 63 µM

Compound: COc1ccc(Nc2c(-c3ccc(OC)cc3)cnc3ccccc23)cc1
- IC50 [3]: 122 µM
- IC50 [4]: 105 µM
- IC50 [1, 6]: 104 µM
- IC50 [2]: 56 µM
- IC50 [5]: 25 µM

Compound: COc1ccc(Nc2cc(-c3ccc(C)cc3)ccn2)cc1
- IC50 [3]: 52 µM
- IC50 [4]: 34 µM
- IC50 [1, 6]: 43 µM
- IC50 [2]: 33 µM
- IC50 [5]: 19 µM
